Format in all cases: cell-based, human
Experiment [1] relates to RPMI8226 cells. Kind of experiment: IC50 of bortezomib and ATBL in RPMI8226 cells. Particulars: for IC50: read-out: half maximal inhibitory concentration (IC50). The method, then: CAG, U266 and RPMI8226 human MM cells; (American Type Culture Collection; ATCC); KMS-11 (originally from the Japanese Collection of Research Bioresource); human MM cells and MPC-11 murine myeloma cell line (kindly provided by Professor Ralph Sanderson, University of Alabama, USA) and HL60 human acute myeloid leukemia (ATCC) were used. Cells were cultured in RPMI-1640 medium supplemented with 10% fetal bovine serum (FBS), supplemented with 1% L-glutamine, 1% sodium pyruvate and 1% pen-strep-neomycin. All cells were cultured at 37° C. in 5% CO2 for no more than 6 months after being thawed from the authentic stocks.
The half maximal inhibitory concentration (IC50) of bortezomib and ATBL was evaluated in RPMI8226 cells.

The subject of experiment [2] is RPMI8226 cells. Nature of the experiment: Apoptosis assay (7AAD and Annexin V, flow cytometry). Particulars: 48 h; compared to other treatments tested. The method, then:
(§1) In another experiment cells were incubated with 10% plasma obtained from vehicle-treated mice, bortezomib-treated mice (at the 24 h time-point) or ATBL-treated mice at 24, 72 and 168 h time-point post administration. Then cell viability and apoptosis status; healthy, early apoptosis, late apoptosis and dead, were determent using 7AAD and Annexin V staining and were used in accordance with the manufacturer's instruction. At least 50,000 events were acquired using a LSRFortessa flow cytometer (BD) and analyzed with FlowJo 10.
(§2) To determine the therapeutic effect of ATBL compared to free bortezomib, a cell viability and apoptosis assay was used. To this end, CAG and RPMI8226 cells were treated with ATBL, bortezomib in naked liposomes, free bortezomib, AMD on empty liposomes, free AMD, empty naked liposomes and vehicle. […] However, the inventors hypothesized that in an in vivo model, ATBL will have better therapeutic efficacy due to its targeting properties.
A general note: In flow cytometry, cells or beads pass a laser one at a time.

The next experiment relates to CAG cells. Described as above. The conditions noted are these: 48 h; compared to other treatments tested. The method, then:
as §1, §2

Consider one compound from patent US20260224733A1, “NANOPARTICLES DIRECTED TO CXCR4 AND USE THEREOF” (TECHNION RESEARCH & DEVELOPMENT FOUNDATION LIMITED, priority 2023, published 2026).

Read-outs that look alike come from different tables or passages of the source.

As to `CC(C)C[C@H](NC(=O)[C@H](Cc1ccccc1)NC(=O)c1cnccn1)B(O)O` [bortezomib, [(1R)-3-methyl-1-[[(2S)-3-phenyl-2-(pyrazine-2-carbonylamino)propanoyl]amino]butyl]boronic acid], the IC50 was found to be 11 nM in the experiment on RPMI8226 cells [1] (Homo sapiens, RPMI-8226, RPMI8226 cells) and 9.13 nM in the experiment with RPMI8226 cells [1] (RPMI8226 cells). The “IC50 of bortezomib relative to ATBL” value in the experiment with RPMI8226 cells [1] (RPMI8226 cells) is approximately 2 fold. Besides, the late apoptosis entry in the experiment on RPMI8226 cells [2] and with CAG cells was “significant higher late apoptosis” each time.
